Common to all, as to type: cell-based, human
The test system of one assay is SMN2 mRNA. The assay is described as follows: RT-qPCR splicing assay, SMN2 canonical junction (CJ) mRNA. The settings on record: Homo sapiens; canonical junction qPCR panel, Table 5; read-out: SMN2 (decrease in CJ mRNA levels, IC50). The essentials: (§1)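 Cells are plated (A673 allowed 24 h to adhere), dosed with an 11-point 3-fold series topping at 10 uM final, and incubated 24 h at 37 °C. Lysis is followed by cDNA synthesis and qPCR of the CJ transcript, normalized to a housekeeping gene.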

Another assay relates to Target C. The assay is described as follows: RT-qPCR splicing assay panel, Target C canonical junction (CJ) mRNA. The settings on record: Homo sapiens; canonical junction qPCR panel, Table 5; read-out: Target C (decrease in CJ mRNA levels, IC50). A digest of the protocol: as §1
The next assay has as its system HTT. The assay can be described thus: HiBiT protein abundance assay, HTT HiBiT K562 cell line. The settings on record: HiBiT lytic detection, modified K562 cells, 24 hours, top dose 10 μM; read-out: Effect on protein abundance, HTT (IC50). The essentials: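 Tagged-protein abundance measured by split-NanoBiT luminescence after lysis, following 24 h compound exposure (37° C; 10 μM top, 3-fold, 10 points; DMSO ≤0.25%) of HiBiT knock-in K562 cells. Percent response vs DMSO and unmodified-cell controls; 4-parameter logistic interpolation at 50% gave IC50.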

Each structure is given as a SMILES string. A value given as a limit tells only on which side of the number the result lay.

For the compound `CN(c1ccc2ncn(-c3cc(F)c4nn(C)cc4c3)c(=O)c2c1)C1CCNCC1` [Compound 2198], the 50% inhibitory concentration (IC50) in the assay with SMN2 mRNA, in the assay on Target C and in the assay on HTT was > 10 µM throughout.

As to `CN1CCC(N(C)c2ccc3ncn(-c4cc(F)c5nn(C)cc5c4)c(=O)c3c2)CC1` [Compound 2199], the IC50 with SMN2 mRNA, in the assay with Target C and in the assay on HTT was > 10 µM throughout.

As to `Cc1cn2cc(-n3cnc4ccc(N(C)C5CCNCC5)cc4c3=O)cc(F)c2n1` [Compound 2200], the IC50 with SMN2 mRNA, in the assay with Target C and with HTT was > 10 µM each time.

Consider `Cc1cn2nc(-n3cnc4ccc(N5CCNCC5)cc4c3=O)cc(C)c2n1` [Compound 2201], for which the half-maximal inhibitory concentration (IC50) in the assay on SMN2 mRNA, with Target C and in the assay with HTT was > 10 µM each time.

With `Cc1cn2nc(-n3cnc4ccc(N5CCN(C)CC5)cc4c3=O)cc(C)c2n1` [Compound 2202], the IC50 with SMN2 mRNA, with Target C and in the assay on HTT was 1 to 10 µM in each case.

For the compound `Cc1cc(-c2ccc3c(=O)[nH]c(N4CCNCC4)nc3c2)cc2cn(C)nc12` [Compound 2211], the half-inhibitory concentration (IC50) in the assay on SMN2 mRNA, with Target C and in the assay on HTT was > 10 µM in each case.

As for `Cc1cc(-c2ccc3c(=O)[nH]c(N4CCN(C)CC4)nc3c2)cc2cn(C)nc12` [Compound 2212], the IC50 in the assay on SMN2 mRNA is 1 to 10 µM; with Target C, 1 to 10 µM; in the assay with HTT, > 10 µM.

For `Cc1cc(-c2nc3cc(N4CCNCC4)ccc3c(=O)[nH]2)cc2cn(C)nc12` [Compound 2213], the IC50 in the assay on SMN2 mRNA, in the assay on Target C and in the assay with HTT was > 10 µM throughout.

These data come from US20250332173A1, “COMPOUNDS AND METHODS FOR MODULATING NUCLEIC ACID SPLICING” (REMIX THERAPEUTICS INC., priority 2021, published 2025).
